# Source: PubChem BioAssay AID1996
# Settings: buffer; pH 7.4; 200.0 µM
row,Compound,solubility kinetic [µg/mL]
1,Cl.Fc1ccc(OCCCCN2CCOCC2)cc1,> 43.5
2,CC(C)NC(=O)c1ccc2c(=O)n(CC3CCCO3)c(=S)[nH]c2c1 (stereo not given),4.4
3,CCOC(=O)C1CCN(C(=O)Nc2ccc(C)c(Cl)c2)CC1,6.9
4,COc1ccc(NC(=O)CN(C)Cc2cccs2)cc1Cl,42.1
5,CCn1cnc2c(oc3ccccc32)c1=O,31.9
6,COCCNC(=S)Nc1ccccc1Cc1ccccc1,13.7
7,CCc1noc(C)c1C(=O)OCC(=O)NCc1ccccc1,> 45.3
8,COc1ccc(C(O)Cc2nccn2C)cc1 (stereo not given),> 34.8
9,O=C(NCC1CCCO1)c1cc2c(=O)[nH]c3ccccc3c2s1 (stereo not given),2.6
10,O=C(NCc1cccnc1)C(=O)C1C(=O)Nc2ccccc21 (stereo not given),42.5
11,Cn1c2c(c(=O)c3ccccc31)CCCC2,> 32
12,Cc1ccc(NC(=O)CNC(=O)c2ccco2)nc1,> 38.9
13,O=C(Cn1c(=O)oc2ccc(Cl)cc21)NC1CCCCC1,2.9
14,COc1ccc(C(=O)NCC(C)NC(=O)c2ccc(OC)c(OC)c2)cc1OC (stereo not given),8.9
15,O=C(NCc1ccccn1)Nc1ccccc1Cl,> 39.3
16,CCSc1nnc(SCC(=O)Nc2cc(C)on2)s1,> 47.5
17,Cc1ccc(N2CCN(C(=S)Nc3ccccc3C)CC2)cc1,0.6
18,COC(=O)C1C(O)=C(C=Nc2ccccc2)C(=O)CC1(C)C (stereo not given),> 45.2
19,COC(CNc1nc(SC)nc2sc3c(c12)CCN(C)C3)OC,52.4
20,CCOc1ccc(NC(=O)CCn2ccnc2)cc1,> 38.9
21,Cn1c(=O)[nH]c(=O)c2c1nc1n2CCS1,31
22,CCc1nnc(NC(=O)c2cc(C)nc3ccccc23)s1,> 44.8
23,CC(C)N1CCN(Cc2c[nH]c3ccccc23)CC1CCO (stereo not given),32.8
24,O=C(Nc1nc2c(F)c(F)c(F)cc2s1)c1ccco1,< 0.3
25,CSc1ccccc1NC(=O)CSc1nncs1,> 44.6
26,O=C(c1cccnc1)N1CCN(S(=O)(=O)c2cccs2)CC1,> 50.6

row,Compound,solubility kinetic [µg/mL]
1,CC(=O)c1c(C)[nH]c(C(=O)COC(=O)c2c(-c3ccccc3)noc2C)c1C,2.1
2,FC(c1nc2ccccc2[nH]1)C(F)(F)F (stereo not given),> 32.7
3,Cc1cnc(C(=O)NC(C)CCc2ccccc2)cn1 (stereo not given),> 40.4
4,O=C(CN1CCN(c2ccccc2F)CC1)NCc1ccc(Cl)cc1,49.1
5,CN1CCC2(CC1)N=C(c1ccc(F)cc1)C(=S)N2,39.8
6,CC(CCN1CCN(c2ccccn2)CC1)c1ccccc1 (stereo not given),31
7,O=C(Nc1ccc(Cl)cc1)N1CCOCC1,> 36.1
8,CCOC(=O)C1CCN(C(C)C(=O)c2c[nH]c3ccccc23)CC1 (stereo not given),> 49.3
9,CCc1nc2ccccc2n1CCc1ccccc1.Cl,37.6
10,Br.O=C(CN1CCCCC1)c1ccccc1F,> 45.3
11,COCc1cc(C)nc(SCC(=O)NCC2CCCO2)c1C#N (stereo not given),> 50.3
12,CN(C)CCCNC(=S)Nc1ccc(Br)cc1,> 47.4
13,CC(=O)Cc1nsc(NC(=O)c2ccc(Cl)cc2Cl)n1,> 49.5
14,Cc1cc(C)nc(NC(=O)Cc2ccc(Br)cc2)n1,> 48
15,CC(C)[C@H](NC(=O)c1ccccc1Cl)C(=O)OCC(=O)NC(=O)NCc1ccco1,40.1
16,O=C(NC1CCCCC1)c1ccc2[nH]c(=O)c(=O)[nH]c2c1,> 43.1
17,CCOC(=O)C1CCCN(C(=O)COc2ccc(S(=O)(=O)N3CCOCC3)cc2)C1 (stereo not given),> 66.1
18,CC1CC2(CCCC2)Nc2ccc(F)cc21.Cl (stereo not given),0.7
19,CCOC(=O)C1CCCN(/C=C2\SC(=S)N(CC)C2=O)C1 (stereo not given),39.4
20,Cc1cc(C)c2c(n1)sc1c(N3CCN(C)CC3)ncnc12,39.6
21,Cc1[nH]c2ccccc2c1SCC(=O)Nc1nccs1,4.8
22,COc1cccc(C2CCCN2Cc2nc(-c3cnccn3)no2)c1 (stereo not given),44.9
23,Cc1cc(C)c(OCCCCCn2ccnc2)c(C)c1,> 40.9
24,Cc1cc(C)cc(OCC(=O)O/N=C(\N)c2cccnc2)c1,38.3
25,CSc1nc(SC(C)C(=O)O)c2c3c(sc2n1)COC(C)(C)C3 (stereo not given),> 55.6
26,COc1ccccc1NC(=O)N1CCC(c2nc3ccccc3o2)CC1,44.9

# Now from value to compound:
row,solubility kinetic [µg/mL],Compound
1,2.2,FC(F)(F)c1ccnc(Oc2ccc(C3=NCCS3)cc2)c1
2,6.1,O=C1/C(=C/c2ccc([N+](=O)[O-])cc2)Oc2cc(O)ccc21
3,> 47.9,CC(C)c1onc(C(=O)Nc2ccc3c(c2)OCO3)c1[N+](=O)[O-]
4,10,N#C/C(=C\c1cccnc1)C(=O)Nc1cccc(Cl)c1
5,> 48.7,COc1ccc(C2C(C(C)=O)=C(O)C(=O)N2c2ccccn2)cc1 (stereo not given)
6,4.2,COC(=O)c1scc(C)c1N1C(=O)c2ccccc2C1=O
7,> 59.2,O=C(Nc1cccc(C(=O)Nc2ccccc2C(=O)O)c1)c1cccc(Cl)c1
8,> 35.4,Cc1ccc(S(=O)(=O)n2cnc(C)c2)cc1
9,15,O=[N+]([O-])c1ccc(CN2CCN(c3ccc(F)cc3)CC2)o1
10,6.4,CC1CN(CC(=O)Nc2ccc([N+](=O)[O-])cc2Br)CC(C)O1 (stereo not given)
11,4.8,ClCC1=Nc2ccccc2Cc2ccccc21
12,> 71,COc1ccccc1N1CC(C(=O)Nc2ccc(C)c(S(=O)(=O)N3CCOCC3)c2)CC1=O (stereo not given)
13,> 70.3,COc1ccc(CCNC(=O)C2CC(O)CN2S(=O)(=O)c2ccc(Cl)cc2)cc1OC (stereo not given)
14,3,Cc1ccc(SC(=O)c2c(C)noc2-c2cc(C)on2)cc1
15,14,CC(=O)Nc1cccc(Oc2nc(C(F)(F)F)nc3ccccc23)c1
16,19.7,N#Cc1ccccc1OCC(=O)Nc1ccc2c(c1)OCCO2
17,15.5,COc1cccc(N=Cc2c(O)c3ccccc3oc2=O)c1

row,solubility kinetic [µg/mL],Compound
1,2.7,O=c1cc(COc2ccccc2[N+](=O)[O-])nc2sccn12
2,0.2,Cc1cccn2c(=O)c(/C=N/O)c(Nc3ccccc3F)nc12
3,3.7,N#C/C(=C\C=C\c1ccccc1[N+](=O)[O-])C(=O)NCc1ccccc1
4,< 0.3,CC(C)(C)C(=O)O/N=C(\N)c1ccc(Oc2cc(Cl)cc(Cl)c2)c([N+](=O)[O-])c1
5,1.6,COc1ccc2[nH]cc(CCNC(=O)c3ccc4ccccc4n3)c2c1
6,42.3,Cc1cc(C(=O)NCc2ccco2)c2cc(F)ccc2n1
7,17.6,CCc1ccnc(NS(=O)(=O)c2ccc3c(c2)CCO3)c1
8,1.1,Cc1cc(C)cc(NC(=S)Nc2cccc3ccccc23)c1
9,> 44.4,Nc1cc(N)cc(C(=O)Nc2ccc3c(c2)C(=O)NC3=O)c1
10,0.7,O=C(Nc1ccccc1)/C(=C\c1ccccc1)NC(=O)c1ccco1
11,7.6,COc1ccc(NS(=O)(=O)c2ccc(N3CCCC3)c(NC(=S)Nc3cccc(C)c3C)c2)cc1
12,51,O=[N+]([O-])c1ccccc1S(=O)(=O)NCCSCc1ccco1
13,30.2,CC(=O)Nc1ccc2c(c1)CCCC2=O
14,5.2,COC(=O)c1c(-c2ccc(F)cc2)csc1NC(=O)C1CCCO1 (stereo not given)
15,< 0.2,COc1ccc(Oc2nc(-c3cccnc3)nc3ccccc23)cc1
16,4.4,CCCCCCNc1c([N+](=O)[O-])c(=O)sc2ccccc12
